Experimental data: patent publication US9101620B2, “Polymorph of 3-(substituteddihydroisoindolinone-2-yl)-2,6-dioxopiperidine, and pharmaceutical compositions thereof” (Nanjing Cavendish Bio-Engineering Technology Co., Ltd., priority 2009, dated 2015)
“Also recorded” adds a separate entry of the source.

Experiments:
Format in all cases: physicochemical
[1] = Observation test of long-term sample storage (crystal transformation); details: long-term sample storage in high humidity; DSC scanning
[2] = Solubility test according to Chinese Pharmacopoeia Edition 2005; details: for Dissolving status: within 30 minutes
Method: Test was performed according to the Examples of Chinese Pharmacopoeia Edition 2005. Method: a definite quantity of the Polymorph I of 3-(4-amino-1-oxo-1,3-dihydro-2H-isoindole-2-yl)-piperidine-2,6-dione (hemihydrate) measured accurately was added into a certain quantity of solvent slowly, while the mixture was shaken strongly for 30 seconds every 5 minutes and the dissolving status within 30 minutes was observed. Results were listed in Tab. 1.
Test was performed according to the Examples of Chinese Pharmacopoeia Edition 2005. Method: a definite quantity of the (acetonitrile) solvated Polymorph II of 3-(4-amino-1-oxo-1,3-dihydro-2H-isoindole-2-yl)-piperidine-2,6-dione measured accurately was added into a certain quantity of solvent slowly, while the mixture was shaken strongly for 30 seconds every 5 minutes and the dissolving status within 30 minutes was observed. Results were listed in Tab. 61.
Test was performed according to the Examples of Chinese Pharmacopoeia Edition 2005. Method: a definite quantity of the (acetone) solvated polymorph III of 3-(4-amino-1-oxo-1,3-dihydro-2H-isoindole-2-yl)-piperidine-2,6-dione measured accurately was added into a certain quantity of solvent slowly while the mixture was shaken strongly for 30 seconds every 5 minutes and the dissolving status within 30 minutes was observed. Results were listed in Tab. 11.

[3] = High humidity test (room temperature, 75±5% relative humidity); details: for Change of appearance and content (in words) / Moisture absorption (in words): high humidity test, summary; for Appearance / Content / Weight gain of moisture absorption: room temperature, 75±5% relative humidity
Method: (§1) The raw material of Polymorph 1 of 3-(4-amino-1-oxo-1,3-dihydro-2H-isoindole-2-yl)-piperidine-2,6-dione (hemihydrate) was distributed homogeneously in open petri dish with thickness of the raw material not more than 5 mm and put into thermostatic and humidostatic incubator at room temperature (about 25° C.) and 75±5% relative humidity. Sample was tested at the 5th and 10th day respectively and the results were contrasted with that of the Day 0. Results were listed in Tab. 4. After high humidity test of 75±5% relative humidity for 10 days, the X-ray powder diffraction pattern was shown in FIG. 9; DSC diagram was in FIG. 10-1; TGA diagram was in FIG. 10-2.
as §1, with “Polymorph II” for “Polymorph 1”, “3-(4-amino-1-oxo-1,3-dihydro-2H-isoindole-2-yl)-piperidine-2,6-dione” for “3-(4-amino-1-oxo-1,3-dihydro-2H-isoindole-2-yl)-piperidine-2,6-dione (hemihydrate)”, “Tab. 9.” for “Tab. 4.”, “FIG. 20;” for “FIG. 9;”, “FIG. 21-1;” for “FIG. 10-1;”, “FIG. 21-2.” for “FIG. 10-2.”
as §1, with “Polymorph III” for “Polymorph 1”, “3-(4-amino-1-oxo-1,3-dihydro-2H-isoindole-2-yl)-piperidine-2,6-dione” for “3-(4-amino-1-oxo-1,3-dihydro-2H-isoindole-2-yl)-piperidine-2,6-dione (hemihydrate)”, “Tab. 14.” for “Tab. 4.”, “FIG. 31;” for “FIG. 9;”, “FIG. 32-1;” for “FIG. 10-1;”, “FIG. 32-2.” for “FIG. 10-2.”

[4] = Oxidation destruction (30% H2O2), related substances by HPLC
Method: Oxidation destruction: 50 mg of sample weighted accurately was added into measuring flask of 100 mL, and 10 mL 30% H2O2 was added. After standing at room temperature for 2 hour, the mixture was diluted with mobile phase to scale and shook to be homogeneous, and determined by HPLC.
(§2) HPLC conditions and system applicability: octadecylsilane bonded silica as the filler; 0.01 mol/L of potassium dihydrogen phosphate (adjusted to pH 3.5 by phosphoric acid)-methanol-acetonitrile (80:15:5) as the mobile phase; detection wavelength was 240 nm; the number of theoretical plates should be not less than 2000, calculated according to the peak of lenalidomide. The resolution of the peak of 3-(4-amino-1-oxo-1,3-dihydro-2H-isoindole-2-yl)-piperidine-2,6-dione from the peaks of adjacent impurities should meet requirements.
(§3) Determination method: sample was dissolved in mobile phase to be the solution containing 0.5 mg per 1 mL. 20 μL of such solution was injected into liquid chromatograph and chromatogram was recorded until fourfold the retention time of major component peak. If there were impurities peaks in the chromatogram of sample solution, total impurities and sole impurity were calculated by normalization method on the basis of peak area.

[5] = Destruction test: impurities in raw materials before destruction (HPLC)
Source text: The methods of destruction experiment of the Polymorph I of this invention (hereinafter referred to as “Polymorph I”) contrasting with the Polymorph A and B of 3-(4-amino-1-oxo-1,3-dihydro-2H-isoindole-2-yl)-piperidine-2,6-dione prepared by the method in CN 1871003A (hereinafter referred to as “Polymorph A” and “polymorph B”) and results of stability are followed:
as §2, §3

[6] = Acid destruction (0.1 mol/L HCl), related substances by HPLC
Method: Acid destruction: 50 mg of sample weighted accurately was added into measuring flask of 100 mL, and 10 mL 0.1 mol/L HCl solution was added. After standing at room temperature for 1 hour, an equal amount of 0.1 mol/L NaOH solution was added for neutralization. Then the mixture was diluted with mobile phase to scale and shook to be homogeneous, and determined by HPLC.
as §2, §3

[7] = 30% H2O2, room temperature, 2 hour
[8] = 0.1 mol/L HCl, room temperature, 1 hour

Compound: Nc1cccc2c1CN(C1CCC(=O)NC1=O)C2=O (single isomer, unassigned) [Polymorph III, 3-(4-amino-1-oxo-1,3-dihydro-2H-isoindole-2-yl)-piperidine-2,6-dione]
- Crystal transformation [1]: a small amount of Polymorph III had transformed to Polymorph I
- Conclusion (solubility) ([2]; 0.1 mol/L HCl solution): slightly soluble
- Dissolving status ([2]; 0.1 mol/L HCl solution): fully
- Conclusion (solubility) ([2]; 0.1 mol/L NaOH solution): sparingly soluble
- Dissolving status ([2]; 0.1 mol/L NaOH solution): fully
- Conclusion (solubility) ([2]; DMF (N,N-dimethylformamide)): soluble
- Dissolving status ([2]; DMF): fully
- Conclusion (solubility) ([2]; DMSO (dimethylsulfoxide)): soluble
- Dissolving status ([2]; DMSO): fully
- Conclusion (solubility) ([2]; acetic acid): sparingly soluble
- Dissolving status ([2]; acetic acid): fully
- Conclusion (solubility) ([2]; acetone): slightly soluble
- Dissolving status ([2]; acetone): fully
- Conclusion (solubility) ([2]; acetonitrile): slightly soluble
- Dissolving status ([2]; acetonitrile): fully
- Conclusion (solubility) ([2]; ethanol): very slightly soluble and very
- Dissolving status ([2]; ethanol): fully
- Conclusion (solubility) ([2]; ethyl acetate): very slightly soluble and very
- Dissolving status ([2]; ethyl acetate): fully
- Conclusion (solubility) ([2]; methanol): slightly soluble
- Dissolving status ([2]; methanol): fully
- Conclusion (solubility) ([2]; water): very slightly soluble; also recorded: practically
- Dissolving status ([2]; water): cannot fully
- Change of appearance and content (in words) [3]: few obvious change
- Moisture absorption (in words) [3]: lower moisture absorption
- Appearance ([3]; 0 days): off-white powder
- Content ([3]; 0 days): 99.86%
- Appearance ([3]; 5 days): off-white powder
- Content ([3]; 5 days): 99.83%
- Weight gain of moisture absorption ([3]; 5 days): 1.25%
- Appearance ([3]; 10 days): off-white powder
- Content ([3]; 10 days): 99.82%
- Weight gain of moisture absorption ([3]; 10 days): 1.37%

Compound: Nc1cccc2c1CN(C1CCC(=O)NC1=O)C2=O (single isomer, unassigned) [Polymorph I, 3-(4-amino-1-oxo-1,3-dihydro-2H-isoindole-2-yl)-piperidine-2,6-dione]
- Major impurity, peak tR5.649-5.660 [4, 7]: 0.09%
- Major impurity, peak tR10.372-10.401 [4, 7]: 0.03%
- Major impurity, peak tR32.279-32.318 [4, 7]: 0.01%
- Major impurity, peak tR35.063-35.098 [4, 7]: 0.02%
- Total impurities generated by oxidation destruction [4, 7]: impurities: 0.16%
- Chemical stability (in words) ([4]; oxidating condition / oxidation destroy experiment): better stability
- Major impurity, peak tR5.872-5.948 [5]: 0.01%
- Major impurity, peak tR10.961-11.165 [5]: 0.03%
- Total impurities in raw materials before destruction ([5]; HPLC peak area normalization): impurities: 0.04%
- Conclusion (solubility) ([2]; 0.1 mol/L HCl solution): slightly
- Conclusion (solubility) ([2]; 0.1 mol/L HCl solution, listed as Polymorph 1): slightly soluble
- Dissolving status ([2]; 0.1 mol/L HCl solution): fully
- Conclusion (solubility) ([2]; 0.1 mol/L NaOH solution): sparingly
- Conclusion (solubility) ([2]; 0.1 mol/L NaOH solution, listed as Polymorph 1): sparingly soluble
- Dissolving status ([2]; 0.1 mol/L NaOH solution): fully
- Conclusion (solubility) ([2]; DMF (N,N-dimethylformamide), listed as Polymorph 1): soluble
- Dissolving status ([2]; DMF): fully
- Conclusion (solubility) ([2]; DMSO (dimethylsulfoxide)): freely
- Conclusion (solubility) ([2]; DMSO (dimethylsulfoxide), listed as Polymorph 1): freely soluble
- Dissolving status ([2]; DMSO): fully
- Conclusion (solubility) ([2]; acetic acid, listed as Polymorph 1): soluble
- Dissolving status ([2]; acetic acid): fully
- Conclusion (solubility) ([2]; acetone): slightly
- Conclusion (solubility) ([2]; acetone, listed as Polymorph 1): slightly soluble
- Dissolving status ([2]; acetone): fully
- Conclusion (solubility) ([2]; acetonitrile): slightly
- Conclusion (solubility) ([2]; acetonitrile, listed as Polymorph 1): slightly soluble
- Dissolving status ([2]; acetonitrile): fully
- Conclusion (solubility) ([2]; ethanol): very slightly
- Conclusion (solubility) ([2]; ethanol, listed as Polymorph 1): very slightly soluble
- Dissolving status ([2]; ethanol): fully
- Conclusion (solubility) ([2]; ethyl acetate): very slightly
- Conclusion (solubility) ([2]; ethyl acetate, listed as Polymorph 1): very slightly soluble
- Dissolving status ([2]; ethyl acetate): fully
- Conclusion (solubility) ([2]; methanol): slightly
- Conclusion (solubility) ([2]; methanol, listed as Polymorph 1): slightly soluble
- Dissolving status ([2]; methanol): fully
- Conclusion (solubility) ([2]; water): very slightly
- Conclusion (solubility) ([2]; water, listed as Polymorph 1): very slightly soluble
- Dissolving status ([2]; water): fully
- Change of appearance and content (in words) [3]: few obvious change
- Moisture absorption (in words) [3]: very slight moisture absorption
- Appearance ([3]; 0 days): off-white powder
- Content ([3]; 0 days): 99.87%
- Appearance ([3]; 5 days): off-white powder
- Content ([3]; 5 days): 99.85%
- Weight gain of moisture absorption ([3]; 5 days): 0.65%
- Appearance ([3]; 10 days): off-white powder
- Content ([3]; 10 days): 99.85%
- Weight gain of moisture absorption ([3]; 10 days): 0.66%
- Major impurity, peak tR4.717-4.737 [6, 8]: 0.20%
- Major impurity, peak tR7.367-7.381 [6, 8]: 0.41%
- Major impurity, peak tR11.067-11.100 [6, 8]: 0.01%
- Total impurities generated by 0.1 mol/L acid destruction for 1 hour [6, 8]: impurities: 0.62%
- Chemical stability (in words) ([6]; acid condition / 0.1 mol/L diluted HCl solution): better stability
